From patent US20110306554A1, “PEPTIDE CAPABLE OF BINDING TO IMMUNOGLOBULIN” (priority 2009, published 2011)

Tested on: Monoclonal antibody cocktail-induced arthritis mice
Assay: Arthritis suppressing effects on arthritis-induced mice, Part 3
Type: in vivo
Conditions: 10 mg/kg intravenously once a day from day 4, 10 days
Method: Monoclonal antibody cocktail-induced arthritis mice were used to examine arthritis suppressing effects of peptides which are indicated as R13 and R17 in the section (3) in Example 2. Arthritis was caused by intravenous administration of 2 mg/mouse of an arthritis-inducing monoclonal antibody cocktail and three days later, intraperitoneal administration of 50 μg/mouse of LPS. The peptides were given via intraperitoneal or intravenous administration at a dose of 10 mg/kg once a day for a period of 10 consecutive days from four days after the administration of the arthritis-inducing monoclonal antibody cocktail, and arthritis suppressing effect was examined in terms of clinical score and hind-limb volume determination.
The required amount was calculated for each peptide, based on the animal weight. Each peptide solution was prepared using physiological saline (at 0.1 mg/ml for R1, 1 mg/ml for R2, and 1 or 10 mg/ml for R13 and R17), and cold stored. […]
Results of examinations were expressed by mean value±standard error and analyzed using EXSAS (Version 7.1.6, Arm Systex Co., Ltd.). […] Quantitative data, such as body weights and leg volumes, were subjected to Bartlett's test, followed by Dunnett's multiple comparison test when the variance was uniform or Steel's multiple comparison test when the variance was not uniform.

KFTSKVPGLYYFVYH (Immunoglobulin binding peptide) [R17]
arthritis-suppressing effect (clinical score): arthritis-suppressing effects comparable to those of the groups receiving administration of R1 (intravenously) or R2 (intraperitoneally)
